In patent EP4818330A1, “PHARMACEUTICAL PREPARATION FOR DIAGNOSING AND TREATING ALZHEIMER'S DISEASE” (Shanghai East Hospital Tongji University, priority 2023, dated 2025):

Columns and labels:
primary neurons = test: CCK8 cell viability (toxicity) assay in primary neurons; format: cell-based, mouse; settings: Mus musculus, Primary neuron, CCK8 toxicity test
Source text: (§1) The CCK8 cell viability assay (CCK8) was adopted. Its principle is mainly based on the reduction reaction of WST-8 (chemical name: 2-(2-methoxy-4-nitrophenyl)-3-(4-nitrophenyl)-5-(2,4-disulfophenyl)-2H-tetrazolium monosodium salt). In the presence of living cells, WST-8 can be reduced by dehydrogenases in mitochondria to generate a highly water-soluble orange-yellow formazan product. The color intensity is directly proportional to the number of living cells, wherein the quantity of living cells can be indirectly reflected by measuring the absorbance of formazan products (typically at a wavelength of 450 nm). The CCK-8 assay is widely used in cell proliferation assay, cytotoxicity assay and tumor drug sensitivity test.
Primary hippocampal neuron culture: After ICR fetal mice at 18-21 days of gestation (E18-E21) were anesthetized, the fetal mice were dissected in a clean area and immersed in 75% ethanol for 1-2 min. The mouse head was taken out, the surface skull was removed with micro-scissors, and the brain tissue was transferred to an anatomical dissociation solution. Under a microscope, blood vessels and meninges were removed, hippocampal tissue was isolated, the extracted hippocampal tissue was placed in a 3.5 cm dish containing the anatomical dissociation solution, and the hippocampal tissue was cut into small fragments using micro-scissors. The minced hippocampal tissue was transferred to a 7 ml EP tube using a pipette gun. The hippocampal tissue hereinabove was centrifuged at 1000 rpm for 3-5 min, and the anatomical separation solution was discarded. 0.5-1 ml of papain digestion solution was added to the EP tube hereinabove, and the EP tube was placed in a 37°C incubator for 30 min. 300 µL of Trituration buffer 300 (DNase) and 5 mL of complete medium were added, and the hippocampal tissue was gently pipetted more than 10 times. The cell suspension was allowed to stand for 3 min, and 3-4 ml of supernatant was gently aspirated into a 15 ml tube using a pipette. 3-4 ml of complete medium was added again, and the hippocampal tissue was gently pipetted more than 10 times. Step 8 was repeated, and 3-4 ml of supernatant was transferred to the same 15 ml tube again. The previous step was repeated again. The collected supernatant was centrifuged at 1000 rpm, the supernatant was discarded, and 5 ml of complete medium was added. The mixture was gently pipetted and suspended, and then centrifuged again at 1000 rpm for 5 min. The complete medium was added to resuspend the cells, and then a portion of the cells was aspirated for counting. Generally, when neuronal cells were planted in a 24-well plate, the concentration of the cell suspension was generally 2×10^5/ml, and 500 µl of cells is inoculated per well. The resuspended neuron cells with a diluted ratio were seeded onto a glass slide treated with PDL, then the glass slide was placed in a 37°C incubator for 10 min, an appropriate amount of complete medium was added, and then the culture is continued in the incubator.

293T cell line = test: CCK8 cell viability (toxicity) assay in 293T cell line; format: cell-based; settings: Homo sapiens, HEK-293T; CCK8 toxicity test, 293T cell line
Source text: as §1
In in vitro experiments, the compound stock solution was prepared into 10 mM with DMSO and diluted with a culture medium before use. The 293T cell line was used for preliminary concentration screening of the compound, wherein concentration gradients were set as follows: 5 µmol, 10 µmol, 20 µmol, 40 µmol, 80 µmol and 160 µmol. After the cells were treated with the compound for 24 h, the CCK8 detection kit was used, wherein the cell viability was calculated based on the absorbance values detected by a microplate reader. Data processing was performed using GraphPad Prism software to plot the IC50 curve.

SMILES: O=C(NC1CN(c2ccncn2)CC1CO)c1ccc2ncccc2c1 (centres unmarked) [compound of Formula II, N-[4-(HYDROXYMETHYL)-1-(PYRIMIDIN-4-YL)PYRROLIDIN-3-YL]QUINOLINE-6-CARBOXAMIDE]
- IC50 (primary neurons): 1.67 µM
- IC50 (293T cell line): 38.6 µM
